Consider four compounds from patent US6376209B2, “Increasing the FVII sensitivity of a thromboplastin reagent” (Dade Behring Marburg GmbH, priority 1997, dated 2002).

Like-named read-outs stand apart in the source and are kept apart here. Where a SMILES comes first, the peptide text is derived from it. [ ]: non-standard residue; d: D form. The star is where a group is joined. Sta = CC(C)C[C@H](N)[C@@H](O)CC(=O)O; Isovaleryl = CC(C)CC(=O)*

What all share (test): Quick's thromboplastin time (PT), Schnitger & Gross
What all share (format): biochemical

Assay [1] deals with Standard human plasma. As to the method: (§1) Quick's thromboplastin time (PT) was then determined using a Schnitger & Gross as follows:
(§2) Heat reagents and tubes to 37° C.;
(§3) Introduce […] of control plasma N or FVII-deficient plasma into the tubes;
(§4) Incubate for 1 min in the thermoblock;
(§5) Add 200 μl of thromboplastin and at the same time start the measuring operation; shake the tube briefly and place it in the measuring position of the Schnitger & Gross, and insert the electrode holder up to the limit stop;
(§6) Read off the coagulation time.
(§7) Quick's thromboplastin time (PT) is then determined using a Schnitger & Gross as follows:
(§8) Introduce 100 μl of plasma into the tubes;
(§9) Add 200 μl of thromboplastin and at the same time start the measuring operation;
(§10) shake the tube briefly, place it in the measuring position of the Schnitger & Gross, and insert the electrode holder up to the limit stop;

Assay [2] relates to control plasma Patho II. As to the method:
as §7, §2, §8, §4, §9, §10, §6
The spread was calculated from the ratio of the coagulation times for the dilution of the StHPl and the StHPl, and the FVII sensitivity was calculated from the ratio of the coagulation times for FVII-MP and STHPL.
Standard human plasma, the control plasma Patho II and an FVII-deficient plasma were used as samples. The reagents were stored at 4° C. and 37° C. and the coagulation time was repeated after 7 and 14 days. The spread was calculated from the ratio of the coagulation times of the Patho II and the StHPl, and the FVII sensitivity was calculated from the ratio of the coagulation times for FVII-MP and the STHPL.

The test system of assay [3] is FVII-deficient plasma. Conditions: 0.5 sec. As to the method: as §1, §2, §3, §4, §5, §6, §7, §8, §9, §10
[4] abbreviates: 0.7 mg/l added to Thromborel S heated 95° C., 0.5 sec.
Setting [5] is: 0.7 mg/l added to Thromborel S heated 95° C.
The mark [6] stands for this setting: 0.01 mM added to Thromborel S heated 95° C., 0.5 sec.
Setting [7] is: 0.025 mM added to Thromborel S heated 95° C., 0.5 sec.
The mark [8] stands for this setting: 0.05 mM added to Thromborel S heated 95° C., 0.5 sec.
The mark [9] stands for this setting: 0.1 mM added to Thromborel S heated 95° C., 0.5 sec.
[10] abbreviates: 0.5 mM added to Thromborel S heated 95° C., 0.5 sec.
Setting [11] is: 0.01 mM added to Thromborel S heated 95° C.
The mark [12] stands for this setting: 0.025 mM added to Thromborel S heated 95° C.
[13] abbreviates: 0.05 mM added to Thromborel S heated 95° C.
The mark [14] stands for this setting: 0.1 mM added to Thromborel S heated 95° C.
Where [15] appears, read: 0.5 mM added to Thromborel S heated 95° C.
Where [16] appears, read: 0.5 mg/l added to Thromborel S heated 95° C.
The mark [17] stands for this setting: 1.5 mM added to Thromborel S heated 95° C., 0.5 sec.
[18] abbreviates: 1.5 mM added to Thromborel S heated 95° C.

As for `CC(C)CC(=O)N[C@H](C(=O)N[C@H](C(=O)N[C@@H](CC(C)C)[C@@H](O)CC(=O)N[C@@H](C)C(=O)N[C@@H](CC(C)C)[C@@H](O)CC(=O)O)C(C)C)C(C)C` [Pepstatin] (Isovaleryl-VV[Sta]A[Sta]-OH), in assay [1] (setting [4]), the “Coagulation time 100%” value came out at 10.6 s. In assay [2] (setting [4]), the “Coagulation time Patho II” value came to 21.6 s and the “Spread: Patho II/100%” value was found to be 2.0. Besides, in assay [3] (setting [5]), the “Coagulation time FVII-MP” value was 115 s and the “FVII sens.: FVII-MP/100%” value came out at 10.9.

On to `Nc1ccc(CS(=O)(=O)F)cc1` [pa-PMSF, 4-aminophenylmethanesulfonyl fluoride], for which the “Coagulation time 100%” value in assay [1] (setting [6]) came out at 10.6 s; in assay [1] (setting [7]) it was 10.6 s; in assay [1] (setting [8]) it was 10.6 s; in assay [1] (setting [9]) it was 10.7 s; in assay [1] (setting [10]), 10.8 s. The “Coagulation time Patho II” value in assay [2] (setting [6]) turned out to be 22.3 s; in assay [2] (setting [7]) it was 21.8 s; in assay [2] (setting [8]), 22.2 s; in assay [2] (setting [9]), 21.7 s; in assay [2] (setting [10]), 23.i. The “Spread: Patho II/100%” value in assay [2] (setting [6]) is 2.1; in assay [2] (setting [7]), 2.1; in assay [2] (setting [8]), 2.1; in assay [2] (setting [9]) it was 2.0; in assay [2] (setting [10]), 2.1. The “Coagulation time FVII-MP” value in assay [3] (setting [11]) turned out to be 144 s; in assay [3] (setting [12]) it was 147 s; in assay [3] (setting [13]), 161 s; in assay [3] (setting [14]), 172 s; in assay [3] (setting [15]), 298 s. The “FVII sens.: FVII-MP/100%” value in assay [3] (setting [11]) is reported as 13.6; in assay [3] (setting [12]), 13.8; in assay [3] (setting [13]), 15.2; in assay [3] (setting [14]), 16.1; in assay [3] (setting [15]), 27.6.

With `CC(=O)N[C@@H](CC(C)C)C(=O)N[C@@H](CC(C)C)C(=O)N[C@H](C=O)CCCNC(=N)N` [Leupeptin], the “Coagulation time 100%” value in assay [1] is 10.6 s. In assay [2], the “Coagulation time Patho II” value turned out to be 22.5 s and the “Spread: Patho II/100%” value was found to be 2.1. Also, in assay [3] (setting [16]), the “Coagulation time FVII-MP” value was 121 s and the “FVII sens.: FVII-MP/100%” value came to 11.4.

With `O=S(=O)(F)Cc1ccccc1` [PMSF, phenylmethylsulfonyl fluoride], the “Coagulation time 100%” value in assay [1] (setting [17]) was determined as 10.7 s. In addition, in assay [2] (setting [17]), the “Coagulation time Patho II” value worked out at 21.9 s and the “Spread: Patho II/100%” value worked out at 2.0. In addition, in assay [3] (setting [18]), the “Coagulation time FVII-MP” value was 259 s and the “FVII sens.: FVII-MP/100%” value is 24.2.
